Results taken from patent US20070244199A1 (priority 2006, published 2007).
Values after ≈ are worked out from the molar mass of the structure shown. “Also recorded” adds a separate entry of the source.

Assays:
[1] = test system: M. avium subspecies paratuberculosis (PTB); assay: BACTEC inhibition of PTB (paratuberculosis); assay type: cell-based, Mycobacterium avium subspecies paratuberculosis; details: for activity against PTB (BACTEC growth index over time): single agents at the highest concentration
Excerpt: The MIC was defined as the lowest inhibitor concentration that yielded a growth index change less than that of the 1:100 control bottle. A modification of this protocol was used for MIC determinations of MAC and M. avium subspecies paratuberculosis (Parrish, 2004). Susceptibilities and MIC determinations of M. tuberculosis isolates to isoniazid, streptomycin, ethambutol, rifampin, and pyrazinamide were done using standard BACTEC methods (Siddiqi, 1992). All primary drugs were purchased from Becton Dickinson (Sparks, Md.).
The inhibition assay was performed essentially as described in Example 1 for TB and BCG. Briefly, PTB inoculum was standardized by use of “seed vials” of a suspension of microorganisms in supplemented media. The suspension was vortexed with glass beads and then 0.3 ml to 0.5 ml was introduced into individual supplemented BACTEC 12B vials. Vials were subsequently incubated at 37° C. and the GI recorded until reaching 999. At that time, 0.3 ml of the “seed vial” was introduced into test and compound containing vials. Vials were then read at 24-hour intervals and the rest of the procedure followed as for TB and BCG. The MIC determination was the same as for TB and BCG.

M. bovis BCG = assay: microbe, parasite or virus in culture; assay type: cell-based, Mycobacterium bovis BCG; details: for MIC: Mycobacterium tuberculosis variant bovis BCG, BCG, read-out: minimum inhibitory concentration (MIC)
M. tuberculosis (H37Rv) = assay: BACTEC radiometric MIC determination against M. tuberculosis; assay type: cell-based; details: Mycobacterium tuberculosis, read-out: MIC against M.tb
[2] = test system: latent (hypoxic) mycobacteria; assay: Killing of latent (hypoxic) mycobacteria in vitro; assay type: cell-based
mycobacteria = assay: In vitro sterilizing model; assay type: cell-based
[3] = Pro-drug decomposition at acid and physiologic pH; assay type: physicochemical
Experimental: At physiologic pH (or about 7.5), the molecule slowly breaks down (with a half-time of about 15 hours) to release DSA. This property would enhance the prolonged maintenance of plasma concentrations of the active drug. The MICs of these pro-drug molecules are 6.25 μg/ml (for the 10 carbon compound) and 12.5 μg/ml (for the 8 carbon compound).

[4] = PTB strain #2, combination at 12.5 or 25.0 μg/ml each (FIG. 5)
[5] = PTB strain #4, combination at 12.5 or 25.0 μg/ml each (FIG. 6)
[6] = PTB strain #8, combination at 12.5 or 25.0 μg/ml each (FIG. 7)
[7] = PTB strain #13, combination at 12.5 or 25.0 μg/ml each (FIG. 8)
[8] = PTB strain #15, combination at 12.5 or 25.0 μg/ml each (FIG. 9)
[9] = agent alone at 1.5 μg/ml (FIG. 1, FIG. 2)
[10] = agent alone, DSA at 1/2, 1/4, or 1/8 of the MIC, NSA or OSA at the same concentrations as DSA (FIG. 1)

| Structure (SMILES) | activity against PTB (BACTEC growth index over time) [1, 4] | activity against PTB (BACTEC growth index over time) [1, 5] | activity against PTB (BACTEC growth index over time) [1, 6] | activity against PTB (BACTEC growth index over time) [1, 7] | activity against PTB (BACTEC growth index over time) [1, 8] | MIC, various strains of PTB ([1]; agent alone (FIGS. 4-9)) | MIC (M. bovis BCG) [µg/mL] | inhibition of growth of M. bovis BCG cells (M. bovis BCG; [9]) | inhibition of growth of M. bovis BCG cells (M. bovis BCG; [10]) | MIC (M. tuberculosis (H37Rv)) [µg/mL] | MIC ([1]; Mycobacterium avium, agent alone (FIGS. 4-9), read-out: MIC, various strains of PTB) [µg/mL] | killing of latent (hypoxic) mycobacteria in vitro [2] | activity in an in vitro sterilizing model (mycobacteria) | decomposition in acid pH ([3]; acid pH) | half-time of breakdown to release DSA ([3]; physiologic pH (or about 7.5)) |
| --- | --- | --- | --- | --- | --- | --- | --- | --- | --- | --- | --- | --- | --- | --- | --- |
| CCCCCCCCS(=O)(=O)CC(N)=O [OSA, n-octanesulphonylacetamide] | no activity | no activity | no activity | no activity | no activity | considerably higher | 6.25 (≈ 26.6 µM) | ineffective | no effect | – | – | – | – | – | – |
| CCCCCCCCCS(=O)(=O)CC(N)=O [NSA, n-nonanesulphonylacetamide] | some activity | some activity | some activity | some activity | some activity | considerably higher | 3 (≈ 12 µM) | ineffective | no effect | – | – | – | – | – | – |
| CCCCCCCCCCS(=O)(=O)CC(N)=O [DSA, n-decanesulphonylacetamide] | some activity | some activity | some activity | – | some activity | – | 1.5 (≈ 5.69 µM) | some activity; also recorded: inhibit the growth | no effect | ~1 (≈ 3.8 µM) | ≥ 25 | kill latent (hypoxic) mycobacteria | active | – | – |
| CCCCCCCCCCS(=O)(=O)CC(=O)NCN1CCOCC1 [10 carbon compound] | – | – | – | – | – | – | – | – | – | 6.25 (≈ 17.2 µM) | – | – | – | resists decomposition | about 15 hours |
